These results are taken from patent US12227509B2, “Dihydropyrazolopyrazinone derivative having MGAT2 inhibitory activity” (Shionogi & Co., Ltd., priority 2019, dated 2025).

SMILES strings stand for the structures. Values after ≈ are worked out from the molar mass of the structure shown.

Broadly, the solubility is the dissolved amount per volume that the medium holds. Higher therefore signals a readily soluble substance.

This data set is described as follows: Powder solubility test. Type of data set: physicochemical. The conditions noted are these: pH 6.8, aqueous buffer, thermodynamic from solid, JP-2 solution, 37° C. The procedure:
Appropriate quantity of the compound of the present invention was put in suitable containers. 200 μL of JP-1 solution (water was added to 2.0 g of sodium chloride and 7.0 mL of hydrochloric acid to reach 1000 mL), 200 μL of JP-2 solution (500 mL of water was added to 500 mL of phosphate buffer (pH 6.8)) or 20 mmol/L sodium taurocholate (TCA)/JP-2 solution (JP-2 solution was added to 1.08 g of TCA to reach 100 mL) was independently added to each container. When total amount was dissolved after adding the test reagent, the compound of the present invention was added appropriately. After sealing and shaking at 37° C. for 1 hour, solution was filtrated and 100 μL of methanol was added to 100 μL of each filtrate to dilute two-fold. The dilution ratio and the dilution solvent were changed as necessary. After checking that there was no bubble and deposit, the container was sealed and shaken. The compound of the present invention was measured using HPLC by absolute calibration curve method.

`CS(=O)(=O)CC(=O)Nc1c(CCC2CC2)nn2c1C(=O)N[C@@]1(CCc3cc(OCC(F)(F)F)ccc31)C2` [Compound I-46] had a solubility at 1 h of 8.64 µM (≈ 4.67 µg/mL).
